Our source for the remaining binding values is publication PMC10507085, “Pharmacological inhibition of TBK1/IKKε blunts immunopathology in a murine model of SARS-CoV-2 infection” (Nature Communications, 2023).

Targets include ACVR1B (Homo sapiens, UniProt P36896); CAMK2D (Homo sapiens, UniProt Q13557); CDK19 (Homo sapiens, UniProt Q9BWU1); DCLK1 (Homo sapiens, UniProt O15075); EPHA2 (Homo sapiens, UniProt P29317); ERN1 (Homo sapiens, UniProt O75460); FYN (Homo sapiens, UniProt P06241); GRK4 (Homo sapiens, UniProt P32298); MAP3K1 (Homo sapiens, UniProt Q13233); NEK11 (Homo sapiens, UniProt Q8NG66); PDPK1 (Homo sapiens, UniProt O15530); PIK3CD (Homo sapiens, UniProt O00329); PIKFYVE (Homo sapiens, UniProt Q9Y2I7); PRKACA (Homo sapiens, UniProt P17612); RIOK2 (Homo sapiens, UniProt Q9BVS4); STK35 (Homo sapiens, UniProt Q8TDR2).

Holding throughout (assay): biochemical
Holding throughout (parameters): KINOMEscan competition binding, DNA-tagged kinase against immobilised ligand, qPCR read-out
What all share (settings): read-out: Percent Control
For orientation: In qPCR the cycle at which signal appears reflects the starting amount.

The target in assay [1] is T1, RSK1(Kin.Dom.2-C-terminal) (Homo sapiens, UniProt Q15418).
T1 construct: gene RPS6KA1; Kin.Dom.2 C-terminal

The target of assay [2] is T2, RSK4(Kin.Dom.2-C-terminal) (Homo sapiens, UniProt Q9UK32).
T2 construct: gene RPS6KA6; Kin.Dom.2 C-terminal

For assay [3], the target named is T3, TYK2(JH2domain-pseudokinase) (Homo sapiens, UniProt P29597).
T3 construct: JH2 domain pseudokinase

Chain of CAMK2D (Q13557 whole entry): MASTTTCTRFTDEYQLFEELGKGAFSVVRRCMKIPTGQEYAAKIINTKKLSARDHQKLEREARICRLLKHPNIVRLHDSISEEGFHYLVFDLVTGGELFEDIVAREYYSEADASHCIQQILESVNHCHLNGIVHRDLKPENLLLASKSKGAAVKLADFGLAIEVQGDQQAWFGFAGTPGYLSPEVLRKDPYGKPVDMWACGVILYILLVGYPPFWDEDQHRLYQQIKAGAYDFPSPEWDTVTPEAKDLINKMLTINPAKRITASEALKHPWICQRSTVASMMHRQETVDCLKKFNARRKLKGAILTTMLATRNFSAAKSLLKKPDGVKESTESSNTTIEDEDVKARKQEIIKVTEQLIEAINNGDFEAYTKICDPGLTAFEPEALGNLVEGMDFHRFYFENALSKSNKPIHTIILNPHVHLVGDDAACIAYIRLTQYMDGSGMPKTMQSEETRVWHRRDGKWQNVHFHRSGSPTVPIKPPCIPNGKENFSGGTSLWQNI
Chain of STK35 (Q8TDR2 whole entry): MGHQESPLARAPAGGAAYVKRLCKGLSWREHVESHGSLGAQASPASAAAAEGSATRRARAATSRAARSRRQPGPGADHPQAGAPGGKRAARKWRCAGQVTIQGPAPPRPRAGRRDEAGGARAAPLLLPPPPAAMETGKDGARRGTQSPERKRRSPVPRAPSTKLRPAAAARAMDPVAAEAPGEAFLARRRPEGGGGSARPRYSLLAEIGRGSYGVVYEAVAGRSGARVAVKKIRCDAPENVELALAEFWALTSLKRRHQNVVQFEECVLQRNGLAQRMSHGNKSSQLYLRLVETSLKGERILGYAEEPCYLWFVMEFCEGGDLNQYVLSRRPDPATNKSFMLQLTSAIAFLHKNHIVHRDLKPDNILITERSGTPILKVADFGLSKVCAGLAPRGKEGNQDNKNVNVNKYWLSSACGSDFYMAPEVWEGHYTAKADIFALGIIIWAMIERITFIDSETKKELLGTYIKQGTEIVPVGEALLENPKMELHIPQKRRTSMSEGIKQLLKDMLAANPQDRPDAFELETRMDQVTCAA
T1 sequence (Q15418 whole entry): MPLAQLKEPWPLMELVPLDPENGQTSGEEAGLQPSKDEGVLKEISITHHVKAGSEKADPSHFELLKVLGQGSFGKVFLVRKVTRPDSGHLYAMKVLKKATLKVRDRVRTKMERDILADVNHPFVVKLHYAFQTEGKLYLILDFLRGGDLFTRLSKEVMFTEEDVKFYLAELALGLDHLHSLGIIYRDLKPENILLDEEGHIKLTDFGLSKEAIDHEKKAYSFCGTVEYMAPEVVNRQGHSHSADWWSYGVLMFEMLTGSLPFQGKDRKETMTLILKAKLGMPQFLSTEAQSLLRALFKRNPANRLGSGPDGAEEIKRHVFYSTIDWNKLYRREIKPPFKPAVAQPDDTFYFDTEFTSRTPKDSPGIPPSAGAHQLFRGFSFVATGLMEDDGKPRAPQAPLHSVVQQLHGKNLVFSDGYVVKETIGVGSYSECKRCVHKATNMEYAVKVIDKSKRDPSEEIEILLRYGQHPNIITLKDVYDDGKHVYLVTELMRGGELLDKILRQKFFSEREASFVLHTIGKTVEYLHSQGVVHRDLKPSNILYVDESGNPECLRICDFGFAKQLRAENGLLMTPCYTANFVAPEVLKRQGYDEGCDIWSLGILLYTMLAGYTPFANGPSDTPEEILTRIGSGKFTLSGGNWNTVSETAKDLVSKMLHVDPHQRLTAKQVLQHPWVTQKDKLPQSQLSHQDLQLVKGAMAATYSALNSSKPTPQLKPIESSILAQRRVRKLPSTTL
Chain of ERN1 (O75460 whole entry): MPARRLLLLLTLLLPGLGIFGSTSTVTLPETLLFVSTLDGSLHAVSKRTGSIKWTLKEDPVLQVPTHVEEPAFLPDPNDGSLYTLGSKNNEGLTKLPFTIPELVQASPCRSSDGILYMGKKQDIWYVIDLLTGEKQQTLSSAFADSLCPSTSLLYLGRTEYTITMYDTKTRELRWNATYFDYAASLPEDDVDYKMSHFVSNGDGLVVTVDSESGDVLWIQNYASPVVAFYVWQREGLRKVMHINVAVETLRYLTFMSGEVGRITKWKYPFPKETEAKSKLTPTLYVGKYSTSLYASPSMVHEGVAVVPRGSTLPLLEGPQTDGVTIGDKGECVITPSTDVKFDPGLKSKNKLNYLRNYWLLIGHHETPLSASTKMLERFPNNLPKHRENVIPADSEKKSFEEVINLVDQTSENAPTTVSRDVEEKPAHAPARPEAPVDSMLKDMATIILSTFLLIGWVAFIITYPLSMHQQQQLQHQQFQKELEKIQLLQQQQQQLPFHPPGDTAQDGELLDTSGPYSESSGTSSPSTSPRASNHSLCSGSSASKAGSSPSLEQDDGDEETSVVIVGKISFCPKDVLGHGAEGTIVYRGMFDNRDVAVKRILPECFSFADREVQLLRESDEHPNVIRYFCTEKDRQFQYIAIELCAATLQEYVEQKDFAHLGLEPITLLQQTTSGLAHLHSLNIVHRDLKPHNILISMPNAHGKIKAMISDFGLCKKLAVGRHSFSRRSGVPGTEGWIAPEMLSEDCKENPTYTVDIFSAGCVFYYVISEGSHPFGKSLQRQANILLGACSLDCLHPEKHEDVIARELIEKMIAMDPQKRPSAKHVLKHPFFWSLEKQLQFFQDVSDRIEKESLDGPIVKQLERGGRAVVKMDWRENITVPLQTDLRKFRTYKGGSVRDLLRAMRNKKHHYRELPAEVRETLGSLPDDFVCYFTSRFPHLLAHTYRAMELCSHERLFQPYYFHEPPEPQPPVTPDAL
T2 sequence (Q9UK32 whole entry): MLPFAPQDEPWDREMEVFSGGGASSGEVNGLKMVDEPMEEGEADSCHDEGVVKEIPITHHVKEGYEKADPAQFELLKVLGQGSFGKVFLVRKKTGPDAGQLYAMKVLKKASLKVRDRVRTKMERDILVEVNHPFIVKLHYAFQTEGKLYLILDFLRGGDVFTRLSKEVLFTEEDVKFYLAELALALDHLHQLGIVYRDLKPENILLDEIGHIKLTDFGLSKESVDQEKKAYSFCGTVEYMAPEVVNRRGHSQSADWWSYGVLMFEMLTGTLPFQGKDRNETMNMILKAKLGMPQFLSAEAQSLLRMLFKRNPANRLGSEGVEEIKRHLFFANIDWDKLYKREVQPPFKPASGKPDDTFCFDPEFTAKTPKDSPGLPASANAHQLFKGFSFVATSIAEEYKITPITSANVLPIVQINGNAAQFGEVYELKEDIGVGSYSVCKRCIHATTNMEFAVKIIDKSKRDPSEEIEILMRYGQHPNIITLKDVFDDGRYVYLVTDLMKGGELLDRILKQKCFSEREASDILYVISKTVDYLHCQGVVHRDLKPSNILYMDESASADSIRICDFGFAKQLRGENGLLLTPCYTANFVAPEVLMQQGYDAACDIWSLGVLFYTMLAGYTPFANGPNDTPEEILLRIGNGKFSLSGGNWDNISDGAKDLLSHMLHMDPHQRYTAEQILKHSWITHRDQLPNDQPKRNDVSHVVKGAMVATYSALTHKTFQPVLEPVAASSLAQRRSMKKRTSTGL
Chain of DCLK1 (O15075 whole entry): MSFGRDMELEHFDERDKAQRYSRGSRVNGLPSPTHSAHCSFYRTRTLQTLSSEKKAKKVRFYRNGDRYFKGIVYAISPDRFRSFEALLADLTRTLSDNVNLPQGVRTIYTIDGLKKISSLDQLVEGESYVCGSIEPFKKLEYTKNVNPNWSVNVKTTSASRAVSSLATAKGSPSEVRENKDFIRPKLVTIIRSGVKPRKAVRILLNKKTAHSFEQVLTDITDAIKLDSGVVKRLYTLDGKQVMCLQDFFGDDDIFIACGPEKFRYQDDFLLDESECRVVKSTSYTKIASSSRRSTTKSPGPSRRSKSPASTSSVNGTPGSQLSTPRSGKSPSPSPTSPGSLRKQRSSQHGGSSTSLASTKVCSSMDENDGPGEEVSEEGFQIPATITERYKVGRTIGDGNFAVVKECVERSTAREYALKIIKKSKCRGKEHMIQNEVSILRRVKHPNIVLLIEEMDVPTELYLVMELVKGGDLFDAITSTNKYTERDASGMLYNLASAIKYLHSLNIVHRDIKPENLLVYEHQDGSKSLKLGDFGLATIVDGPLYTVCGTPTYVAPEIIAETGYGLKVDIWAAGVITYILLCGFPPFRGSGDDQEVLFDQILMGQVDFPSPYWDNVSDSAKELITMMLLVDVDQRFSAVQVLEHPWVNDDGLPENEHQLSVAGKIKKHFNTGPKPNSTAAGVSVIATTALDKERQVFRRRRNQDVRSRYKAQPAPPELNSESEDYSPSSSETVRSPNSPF
Chain of PDPK1 (O15530 whole entry): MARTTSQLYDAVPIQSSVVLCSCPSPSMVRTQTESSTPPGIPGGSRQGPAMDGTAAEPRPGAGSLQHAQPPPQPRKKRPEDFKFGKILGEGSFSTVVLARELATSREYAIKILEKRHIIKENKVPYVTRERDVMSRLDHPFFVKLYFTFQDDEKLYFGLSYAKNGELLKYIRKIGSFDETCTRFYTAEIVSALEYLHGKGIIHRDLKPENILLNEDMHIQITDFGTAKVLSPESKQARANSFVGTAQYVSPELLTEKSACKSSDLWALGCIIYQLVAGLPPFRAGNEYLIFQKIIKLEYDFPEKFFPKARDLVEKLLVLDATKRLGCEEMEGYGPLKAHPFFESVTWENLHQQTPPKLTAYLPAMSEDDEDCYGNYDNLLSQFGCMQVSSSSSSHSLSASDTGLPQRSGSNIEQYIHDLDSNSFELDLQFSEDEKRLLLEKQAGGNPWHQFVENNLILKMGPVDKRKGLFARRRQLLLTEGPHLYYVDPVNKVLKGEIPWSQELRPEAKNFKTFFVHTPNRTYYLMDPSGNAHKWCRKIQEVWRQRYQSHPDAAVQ

`Oc1ccc(C2=Cc3ccc(O)cc3OC2)cc1` [compound 1, idronoxil]: the remaining binding at 10 µM on ACVR1B was 87%; at CAMK2D, 84%; on CDK19, 99%; on DCLK1, 100%; on EPHA2, 78%; on ERN1, 66%. The remaining binding at 10 µM at FYN is 89%; at GRK4 it was 68%; on MAP3K1, 76%; on NEK11, 61%; on PDPK1, 79%; at PIK3CD, 86%. Also, the remaining binding at 10 µM was found to be 91% on PIKFYVE; 78% at PRKACA; 82% at RIOK2; 69% in [1]; 76% in assay [2]; 88% on STK35. In [3], the remaining binding at 10 µM was 8.3%.
